Values quoted from earlier work, collected in patent US10548876B2 (Race Oncology Ltd., priority 2013, dated 2020).
Counter-ions that a name gives are not always drawn. Like-named read-outs stand apart in the source and are kept apart here.

How the values were obtained:
telomerase = conditions: by interfering with substrate recognition
[1] = tested on: telomerase-expressing cells and ALT-positive cell lines
[2] = target: glycogen synthase kinase-3β (GSK-3β) (Homo sapiens, UniProt P49841)
double-stranded DNA = conditions: under physiological conditions, threading mode
[3] = tested on: colon 26, Lewis lung, Ridgway osteosarcoma, B16, Lieberman plasma cell, P388 or L1210 cancer cells
metastatic breast cancer = conditions: patients with metastatic breast cancer
human colon cancer = human colon cancer tested in vitro or in vivo
[4] = tested on: refractory malignant melanoma
[5] = not given; remark: listed apart in the source
[6] = over 96 hr
[7] = triphasic elimination
[8] = one report; interpreted as tissue sequestration with depot effect
[9] = 72-hr infusion
[10] = 5 day schedule of 60 min infusions
[11] = not given; remark: listed apart in the source
[12] = not given; remark: listed apart in the source
[13] = not given; remark: listed apart in the source
[14] = physiologic pH
[15] = tested on: hepatic microsomal enzymes; conditions: specific metabolites not identified
[16] = in vivo
P-glycoprotein = P-glycoprotein (Homo sapiens, UniProt P08183)
P-glycoprotein, sequence (P08183 whole entry): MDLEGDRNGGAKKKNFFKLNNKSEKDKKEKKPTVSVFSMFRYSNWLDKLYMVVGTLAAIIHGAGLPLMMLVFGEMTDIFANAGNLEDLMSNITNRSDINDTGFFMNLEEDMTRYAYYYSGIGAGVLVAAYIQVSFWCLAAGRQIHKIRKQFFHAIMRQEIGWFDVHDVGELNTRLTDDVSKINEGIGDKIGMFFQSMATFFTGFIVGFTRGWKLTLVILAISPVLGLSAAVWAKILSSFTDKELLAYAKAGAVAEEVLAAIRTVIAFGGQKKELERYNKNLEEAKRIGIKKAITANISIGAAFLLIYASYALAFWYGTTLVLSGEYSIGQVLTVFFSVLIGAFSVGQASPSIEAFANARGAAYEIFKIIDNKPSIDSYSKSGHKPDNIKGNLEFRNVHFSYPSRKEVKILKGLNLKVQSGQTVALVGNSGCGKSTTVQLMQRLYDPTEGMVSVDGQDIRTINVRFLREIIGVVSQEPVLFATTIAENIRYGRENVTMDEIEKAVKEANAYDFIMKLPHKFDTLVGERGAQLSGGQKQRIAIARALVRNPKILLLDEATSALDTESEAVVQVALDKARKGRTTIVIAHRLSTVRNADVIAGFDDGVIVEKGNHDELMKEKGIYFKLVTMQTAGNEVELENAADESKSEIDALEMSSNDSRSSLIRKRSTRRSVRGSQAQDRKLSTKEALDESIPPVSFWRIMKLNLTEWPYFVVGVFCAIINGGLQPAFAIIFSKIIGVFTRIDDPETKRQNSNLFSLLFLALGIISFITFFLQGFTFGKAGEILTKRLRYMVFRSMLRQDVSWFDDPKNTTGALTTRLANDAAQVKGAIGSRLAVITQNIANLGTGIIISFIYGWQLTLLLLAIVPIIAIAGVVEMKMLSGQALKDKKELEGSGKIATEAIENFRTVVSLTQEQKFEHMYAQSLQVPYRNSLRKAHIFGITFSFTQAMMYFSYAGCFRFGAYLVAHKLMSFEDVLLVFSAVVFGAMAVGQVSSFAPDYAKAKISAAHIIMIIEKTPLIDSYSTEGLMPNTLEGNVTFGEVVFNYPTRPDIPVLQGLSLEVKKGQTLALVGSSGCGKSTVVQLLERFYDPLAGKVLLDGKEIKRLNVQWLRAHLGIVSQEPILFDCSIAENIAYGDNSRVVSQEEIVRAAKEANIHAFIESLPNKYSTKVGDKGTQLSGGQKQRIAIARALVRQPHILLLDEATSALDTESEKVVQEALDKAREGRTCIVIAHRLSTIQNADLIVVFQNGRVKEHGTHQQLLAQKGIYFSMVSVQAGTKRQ

[17] = local injection; physically decomposes bisantrene
[18] = patients, 90 min infusion at 260 mg/m^2

glycogen synthase kinase-3β (GSK-3β), sequence (P49841 whole entry, species assumed): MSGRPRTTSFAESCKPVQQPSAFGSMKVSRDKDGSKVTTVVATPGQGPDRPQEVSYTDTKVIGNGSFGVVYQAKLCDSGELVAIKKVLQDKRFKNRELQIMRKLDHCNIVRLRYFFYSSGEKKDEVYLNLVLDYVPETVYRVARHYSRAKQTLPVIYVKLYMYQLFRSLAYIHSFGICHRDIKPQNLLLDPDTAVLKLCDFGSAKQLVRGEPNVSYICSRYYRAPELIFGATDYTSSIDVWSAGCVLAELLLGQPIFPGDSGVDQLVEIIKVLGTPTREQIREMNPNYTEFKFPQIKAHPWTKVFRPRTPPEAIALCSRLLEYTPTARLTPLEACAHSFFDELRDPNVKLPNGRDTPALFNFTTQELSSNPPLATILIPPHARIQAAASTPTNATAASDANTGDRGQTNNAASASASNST

In the case of `C(=N\NC1=NCCN1)/c1cccc2cc3c(/C=N/NC4=NCCN4)cccc3cc12` [Formula (III)], the “effect at the telomerase level” value (telomerase) is given as “suppressing its catalytic activity”, the apoptosis [1] is given as “absence of apoptosis” and the cell cycle impairment [1] is given as “G2M phase arrest”. The DNA damage response ([1]; telomerase-expressing cells and ALT-positive cell lines, partially co-localize at the telomere) was “formation of γH2AX foci”.

For `CN1C(=O)/C(=C2/C(=O)Nc3ccccc32)c2ccccc21` [Meisoindigo, meisoindigo], the “concentration of inhibition of GSK-3β” value [2] is listed as 5 to 50 nM.

For `C(=NNC1=NCCN1)c1c2ccccc2c(C=NNC2=NCCN2)c2ccccc12` [bisantrene, 9,10-anthracenedicarboxaldehyde bis[(4,5-dihydro-1H-imidazol-2-yl)hydrazine]dihydrochloride], the “time after treatment for which cytostatic macrophages could be isolated from peritoneal exudate” value (macrophages; cytostatic in cultures of P815 (mastocytoma) tumor cells) is given as 4 weeks, the “minimal effective in vivo dose” value (macrophages; macrophage activation) is given as about 25 mg/kg and the affinity constants (double-stranded DNA) is given as “above 10^6 M^−1”. For the same molecule, the “activity in murine tumor models” value ([3]; P-388 leukemia and B-16 melanoma) was “antitumor activity”, the “activity in cancer models” value ([3]; intravenously (i.v.), intraperitoneally (i.p.), or subcutaneously (s.c.)) was “effective” and the “activity in cancer models” value ([3]; orally) was “inactive”. For the same molecule, the “sensitivity in in vitro colony-forming assays” value (Human tumor cells; breast, ovarian, renal, small cell and non-small cell lung cancer, lymphoma, acute myelogenous leukemia, melanoma, gastric, adrenal, head and neck cancer) was “sensitive”, the “Activity in clonogenic assays from 684 patients” value (Human tumor cells; colorectal cancer) was “not in colorectal cancer” and the cross resistance (Human tumor cells; with Adriamycin and mitoxantrone) was “lack of cross resistance”. For the same molecule, the “activity in Phase II clinical trials” value (metastatic breast cancer) was “active”, the activity (human colon cancer) was “inactive” and the activity [4] was “inactive”. For the same molecule, the DNA strand breaks (L1210 leukemia cells; L1210 leukemia cells, typical of inhibition of DNA topoisomerase II) was “induce protein-associated DNA strand breaks”, the DNA supercoiling (L1210 leukemia cells; indicative of DNA intercalation) was “induce altered DNA supercoiling” and the cardiotoxicity (animals) was “not cardiotoxic”. For the same molecule, the “toxicity compared with doxorubicin” value (cardiotoxicity context) was “less than that of the anthracycline doxorubicin”, the toxicities observed (dogs and monkeys, high doses) was “leukopenia, anorexia, diarrhea, injection site necrosis, enterocolitis, muscle degeneration, and pulmonary edema” and the “effect on platelet aggregation” value (Human Platelets) was “inhibit platelet aggregation”. The “administered dose excreted unchanged in the urine” value ([5]; in 24 hr) was 11.3%, the plasma clearance [5, 18] was 735 mL/min/m^2 and the “steady state volume of distribution (Vdss)” value [5, 18] was 1845 L/m^2. The “administered dose found in the urine” value [6] was 3.4±1.1%, the “t½ α” value ([7]; another single dose study) was 3 min and the “t½ β” value ([7]; another single dose study) was 1 h. For the same molecule, the “t½ γ” value ([7]; another single dose study) was 8 h, the “t½ α” value ([7]; first single dose study) was 3.44 min and the “t½ β” value ([7]; first single dose study) was 1.33 h. For the same molecule, the “t½ γ” value ([7]; first single dose study) was 26.13 h, the volume of distribution [8] was 687 L/m^2 and the plasma clearance [9] was 1306±179 mL/min/m^2. The plasma concentration ([9]; dose of 56 mg/m^2) was 12 ± 6 ng/mL, the plasma concentration ([9]; dose of 260 mg/m^2) was 55 ± 8 ng/mL and the “urinary excretion of the dose” value ([9]; in 24 hr) was 4.6%. For the same molecule, the “dose excreted in the urine” value [10] was 7.1%, the “t½ α” value [10] was 0.9 h and the “t½ β” value [10] was 9.7 h. For the same molecule, the “dose excreted in the urine” value ([11]; in vivo) was “Less than 7%”, the “route by which the majority of the drug is eliminated” value ([11]; in vivo) was “hepatobiliary route” and the “area under the plasma concentration×time curve” value ([11]; intravenous dose of 260 mg/m^2) was 4400 µg·h/mL. For the same molecule, the “area under the plasma concentration×time curve” value ([11]; intravenous dose of 340 mg/m^2) was 5700 µg·h/mL, the beta phase ([11]; three phases of elimination) was “approximately 1.5 hours” and the initial distributive phase ([11]; three phases of elimination) was 6 min. For the same molecule, the “bound to plasma proteins” value (plasma proteins) was “More than 95%”, the Maximally tolerated dose ([12]; daily×5, repeat every 4 week (Spiegel et al. 1982)) was 80 mg/m^2 and the “antitumor activity in phase I clinical trials” value ([12]; hepatocellular cancer and hypernephroma (one patient each), lymphoma, myeloma, melanoma, renal cancer, tumors of the bladder and lung) was “showed activity”. The Thrombocytopenia ([12]; human, in vivo) was “mild”, the “major dose-limiting toxic effect” value ([12]; human, in vivo) was “leukopenia” and the Maximally tolerated dose ([12]; monthly (every 3-4 week) (Von Hoff et al. 1981b)) was 260 mg/m^2. The Maximally tolerated dose ([12]; monthly, patients with poor bone marrow reserve (Von Hoff et al. 1981b)) was 240 mg/mg^2, the “dose limiting toxicity (DLT)” value ([12]; phase I doses between 190-430 mg/m^2 q3w) was “neutropenia” and the “doses requiring a central line due to phlebitis” value ([12]; phase I study, 72 h) was “over 156 mg/m^2”. The MTD ([12]; phase I study, over 72 h) was 300 mg/m^2, the nadir for myelosuppression ([12]; schedule of every 3 to 4 weeks) was 9 days and the recovery from myelosuppression ([12]; schedule of every 3 to 4 weeks) was at most 19 days. The Maximally tolerated dose ([12]; weekly×3 (Alberts et al. 1982)) was 200 mg/m^2, the Maximally tolerated dose ([12]; weekly×3, patients with poor bone marrow reserve (Alberts et al. 1982)) was 150 mg/mg^2 and the Maximally tolerated dose ([12]; weekly×3, repeat every 4-5 week (Yap et al. 1982)) was 150 mg/m^2. For the same molecule, the patients reporting malaise ([13]; Yap et al. 1982) was “up to one-half of patients”, the “patients who experienced anaphylactoid reactions” value ([13]; following a bisantrene infusion) was “Up to 10%” and the nausea or vomiting ([13]; human, in vivo) was “very little nausea or vomiting”. For the same molecule, the “radioangiocardiographic monitoring of cardiac function” value ([13]; patients receiving the drug) was “no decrease in ejection fraction”, the “cardiotoxicity compared with other agents” value ([13]; phase III trial) was “less cardiotoxic than mitoxantrone or doxorubicin” and the “Alopecia (hair loss) compared with doxorubicin” value ([13]; randomized trial in advanced breast cancer) was “less intense”. The aqueous solubility [14] was “lack of aqueous solubility”, the metabolism in vitro [15] was “substrate for hepatic microsomal enzymes” and the Brain levels [16] was “extremely low”. The “tissues with the highest concentration (in descending order)” value [16] was “kidney, liver, gallbladder, spleen, lung, and heart” and the “interaction with P-glycoprotein” value (P-glycoprotein) was “substrate for P-glycoprotein”.

In the case of `O=C([O-])O.[Na+]` [sodium bicarbonate], the extravasation necrosis [17] is given as “blocked”.
